The results in this text go back to US20260125382A1, “COMPOUNDS FOR INHIBITING OR DEGRADING CDK2 AND/OR CDK9 AND MEDICINAL USE THEREOF” (KOREA RESEARCH INSTITUTE OF CHEMICAL TECHNOLOGY, priority 2022, published 2026).

One test addresses T1, CDK2 (Homo sapiens, UniProt P24941).
T1 construct: endogenous in cells; host or cells: MDA-MB-231
The test can be described thus: CDK protein degradation activity (Western blotting), CDK2. The following applies: MDA-MB-231 cells, 16 hours, Western blot. The format is cell-based. A digest of the protocol: (§1)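 MDA-MB-231; cmpd 100 nM / 1 μM / 10 μM final vs DMSO, 16 h. Triton X-100 lysates (pH 7.5, phosphatase/protease inhibitors) → SDS-PAGE → Western blot, anti-CDK2, anti-CDK9, tubulin loading control; densitometry.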

The next test concerns the target T2, CDK9 (Homo sapiens, UniProt P50750).
T2 construct: endogenous in cells; host or cells: MDA-MB-231
The test can be described thus: CDK protein degradation activity (Western blotting), CDK9. To be noted: MDA-MB-231 cells, 16 hours, Western blot. The format is cell-based. In outline:
as §1
(A western blot detects proteins with antibodies after separation by electrophoresis.)

T2 sequence (P50750 whole entry): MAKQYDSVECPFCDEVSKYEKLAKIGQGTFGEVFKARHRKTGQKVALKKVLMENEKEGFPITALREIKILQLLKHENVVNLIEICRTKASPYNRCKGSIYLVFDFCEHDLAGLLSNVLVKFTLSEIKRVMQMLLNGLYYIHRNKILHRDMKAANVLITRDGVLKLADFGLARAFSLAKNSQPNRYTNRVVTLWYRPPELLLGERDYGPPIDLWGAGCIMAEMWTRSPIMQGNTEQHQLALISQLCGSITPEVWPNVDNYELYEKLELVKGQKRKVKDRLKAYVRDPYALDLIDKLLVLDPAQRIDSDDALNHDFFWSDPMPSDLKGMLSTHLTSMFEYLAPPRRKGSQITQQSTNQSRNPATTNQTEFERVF

As to `O=C1CC[C@H](N2C(=O)c3ccc(OCC(=O)N4CCC(CN5CCN(c6ccc(Nc7ncnc8c7ncn8[C@H]7C[C@@H](NC(=O)c8c(Cl)cccc8Cl)C7)cc6)CC5)CC4)cc3C2=O)C(=O)N1` [Compound 162, 2,6-dichloro-N-((1s,3s)-3-(6-((4-(4-((1-(2-((2-(2,6-dioxopiperidin-3-yl)-1,3-dioxoisoindolin-5-yl)oxy)acetyl)piperidin-4-yl)methyl)piperazin-1-yl)phenyl)amino)-9H-purin-9-yl)cyclobutyl)benzamide], on CDK2, the “Enzyme degradation CDK2 (% remaining) @ 0.1 μM” value is 50/50/50%, the “Enzyme degradation CDK2 (% remaining) @ 1 μM” value is 50/50/50% and the “Enzyme degradation CDK2 (% remaining) @ 10 μM” value is 50/50/50%. In addition, on CDK9, the “Enzyme degradation CDK9 (% remaining) @ 0.1 μM” value is listed as 0/0/0%, the “Enzyme degradation CDK9 (% remaining) @ 1 μM” value is 0/0/0% and the “Enzyme degradation CDK9 (% remaining) @ 10 μM” value was 0/0/0%.
Take `Cc1cccc(C(=O)N[C@H]2C[C@@H](n3cnc4c(Nc5ccc(N6CCN(CCC7CCN(C(=O)COc8ccc([C@@H]9CCC(=O)NC9=O)cc8)CC7)CC6)cc5)ncnc43)C2)n1` [Compound 444, N-((1s,3s)-3-(6-((4-(4-(2-(1-(2-(4-(2,6-dioxopiperidin-3-yl)phenoxy)acetyl)piperidin-4-yl)ethyl)piperazin-1-yl)phenyl)amino)-9H-purin-9-yl)cyclobutyl)-6-methylpicolinamide]: at CDK2, the “Enzyme degradation CDK2 (% remaining) @ 0.1 μM” value is on record as 30/30/30%, the “Enzyme degradation CDK2 (% remaining) @ 1 μM” value is reported as 30/30/30% and the “Enzyme degradation CDK2 (% remaining) @ 10 μM” value is 30/30/30%. Besides, at CDK9, the “Enzyme degradation CDK9 (% remaining) @ 0.1 μM” value is given as 0/0/0%, the “Enzyme degradation CDK9 (% remaining) @ 1 μM” value was 0/0/0% and the “Enzyme degradation CDK9 (% remaining) @ 10 μM” value is reported as 0/0/0%.
On to `O=C1CC[C@H](N2C(=O)c3ccc(N4CC(C(=O)N5CCC(CN6CCC(CCNc7ncnc8c7ncn8C7CC(NC(=O)c8c(Cl)cccc8Cl)C7)CC6)CC5)C4)cc3C2=O)C(=O)N1` (stereo partly drawn) [Compound 399, 2,6-dichloro-N-((1s,3s)-3-(6-((2-(1-((1-(1-(2-(2,6-dioxopiperidin-3-yl)-1,3-dioxoisoindolin-5-yl)azetidin-3-carbonyl)piperidin-4-yl)methyl)piperidin-4-yl)ethyl)amino)-9H-purin-9-yl)cyclobutyl)benzamide], for which, on CDK2, the “Enzyme degradation CDK2 (% remaining) @ 0.1 μM” value was 30%, the “Enzyme degradation CDK2 (% remaining) @ 1 μM” value came to 40% and the “Enzyme degradation CDK2 (% remaining) @ 10 μM” value came out at 40%. For the same molecule, at CDK9, the “Enzyme degradation CDK9 (% remaining) @ 0.1 μM” value was 0/0/0%, the “Enzyme degradation CDK9 (% remaining) @ 1 μM” value was 0/0/0% and the “Enzyme degradation CDK9 (% remaining) @ 10 μM” value is given as 0/0/0%.
As to `O=C1CC[C@H](N2C(=O)c3ccc(N4CCC(C(=O)N5CCN(CCCC6CCN(c7ccc(Nc8ncnc9c8ncn9[C@H]8C[C@@H](NC(=O)Cc9ccccc9)C8)cc7)CC6)CC5)CC4)cc3C2=O)C(=O)N1` [Compound 367, N-((1s,3s)-3-(6-((4-(4-(3-(4-(1-(2-(2,6-dioxopiperidin-3-yl)-1,3-dioxoisoindolin-5-yl)piperidin-4-carbonyl)piperazin-1-yl)propyl)piperidin-1-yl)phenyl)amino)-9H-purin-9-yl)cyclobutyl)-2-phenylacetamide], on CDK2, the “Enzyme degradation CDK2 (% remaining) @ 0.1 μM” value came to 10%, the “Enzyme degradation CDK2 (% remaining) @ 1 μM” value turned out to be 0% and the “Enzyme degradation CDK2 (% remaining) @ 10 μM” value was 0%. On CDK9, the “Enzyme degradation CDK9 (% remaining) @ 0.1 μM” value turned out to be 10%, the “Enzyme degradation CDK9 (% remaining) @ 1 μM” value is 0% and the “Enzyme degradation CDK9 (% remaining) @ 10 μM” value turned out to be 0%.
In the case of `O=C1CC[C@H](n2nnc3ccc(N4CCC5(CC4)CC(N4CCN(c6ccc(Nc7ncnc8c7ncn8[C@H]7C[C@@H](NC(=O)c8c(Cl)cccc8Cl)C7)cc6)CC4)C5)cc3c2=O)C(=O)N1` [Compound 317, 2,6-dichloro-N-((1s,3s)-3-(6-((4-(4-(7-(3-(2,6-dioxopiperidin-3-yl)-4-oxo-3,4-dihydrobenzo[d][1,2,3]triazin-6-yl)-7-azaspiro[3.5]nonan-2-yl)piperazin-1-yl)phenyl)amino)-9H-purin-9-yl)cyclobutyl)benzamide], at CDK2, the “Enzyme degradation CDK2 (% remaining) @ 0.1 μM” value was 10/10/10%, the “Enzyme degradation CDK2 (% remaining) @ 1 μM” value was 10/10/10% and the “Enzyme degradation CDK2 (% remaining) @ 10 μM” value is listed as 10/10/10%. In addition, on CDK9, the “Enzyme degradation CDK9 (% remaining) @ 0.1 μM” value is 0/0/0%, the “Enzyme degradation CDK9 (% remaining) @ 1 μM” value was 0/0/0% and the “Enzyme degradation CDK9 (% remaining) @ 10 μM” value is listed as 0/0/0%.
As to `O=C1CC[C@H](N2C(=O)c3cccc(NCC(=O)N4CCC(CN5CCC(CNc6ncnc7c6ncn7C6CC(NC(=O)Cc7ccccc7)C6)CC5)CC4)c3C2=O)C(=O)N1` (stereo partly drawn) [Compound 184, N-((1s,3s)-3-(6-(((1-((1-((2-(2,6-dioxopiperidin-3-yl)-1,3-dioxoisoindolin-4-yl)glycyl)piperidin-4-yl)methyl)piperidin-4-yl)methyl)amino)-9H-purin-9-yl)cyclobutyl)-2-phenylacetamide], on CDK2, the “Enzyme degradation CDK2 (% remaining) @ 0.1 μM” value worked out at 70%, the “Enzyme degradation CDK2 (% remaining) @ 1 μM” value is recorded as 70% and the “Enzyme degradation CDK2 (% remaining) @ 10 μM” value is on record as 50%. Moreover, on CDK9, the “Enzyme degradation CDK9 (% remaining) @ 0.1 μM” value is reported as 0/0/0%, the “Enzyme degradation CDK9 (% remaining) @ 1 μM” value is 0/0/0% and the “Enzyme degradation CDK9 (% remaining) @ 10 μM” value is recorded as 0/0/0%.
Regarding `O=C1CCC(N2C(=O)c3cc(F)c(N4CCC(N5CCN(c6ccc(Nc7ncnc8c7ncn8[C@H]7C[C@@H](NC(=O)Cc8ccccc8)C7)cc6)CC5)CC4)cc3C2=O)C(=O)N1` (stereo partly drawn) [Compound 333, N-((1s,3s)-3-(6-((4-(4-(1-(2-(2,6-dioxopiperidin-3-yl)-6-fluoro-1,3-dioxoisoindolin-5-yl)piperidin-4-yl)piperazin-1-yl)phenyl)amino)-9H-purin-9-yl)cyclobutyl)-2-phenylacetamide], at CDK2, the “Enzyme degradation CDK2 (% remaining) @ 0.1 μM” value stood at 50%, the “Enzyme degradation CDK2 (% remaining) @ 1 μM” value came to 10% and the “Enzyme degradation CDK2 (% remaining) @ 10 μM” value is 10%. Further, on CDK9, the “Enzyme degradation CDK9 (% remaining) @ 0.1 μM” value is 50%, the “Enzyme degradation CDK9 (% remaining) @ 1 μM” value amounted to 0% and the “Enzyme degradation CDK9 (% remaining) @ 10 μM” value turned out to be 0%.
For the molecule `Cc1cccc(C(=O)N[C@H]2C[C@@H](n3cnc4c(NCCC5CCN(CC6CCN(C(=O)C7CCN(c8cc9c(cc8F)C(=O)N(C8CCC(=O)NC8=O)C9=O)CC7)CC6)CC5)ncnc43)C2)n1` (stereo partly drawn) [Compound 450, N-((1s,3s)-3-(6-((2-(1-((1-(1-(2-(2,6-dioxopiperidin-3-yl)-6-fluoro-1,3-dioxoisoindolin-5-yl)piperidin-4-carbonyl)piperidin-4-yl)methyl)piperidin-4-yl)ethyl)amino)-9H-purin-9-yl)cyclobutyl)-6-methylpicolinamide], on CDK2, the “Enzyme degradation CDK2 (% remaining) @ 0.1 μM” value was 50/50/50%, the “Enzyme degradation CDK2 (% remaining) @ 1 μM” value was 50/50/50% and the “Enzyme degradation CDK2 (% remaining) @ 10 μM” value is given as 50/50/50%. Also, at CDK9, the “Enzyme degradation CDK9 (% remaining) @ 0.1 μM” value was 0/0/0%, the “Enzyme degradation CDK9 (% remaining) @ 1 μM” value is listed as 0/0/0% and the “Enzyme degradation CDK9 (% remaining) @ 10 μM” value was 0/0/0%.
Consider `Cc1cccc(C(=O)N[C@H]2C[C@@H](n3cnc4c(Nc5ccc(N6CCN(CC7CCN(C(=O)COc8ccc9c(c8)C(=O)N([C@H]8CCC(=O)NC8=O)C9=O)CC7)CC6)cc5)ncnc43)C2)n1` [Compound 90, N-((1s,3s)-3-(6-((4-(4-((1-(2-((2-(2,6-dioxopiperidin-3-yl)-1,3-dioxoisoindolin-5-yl)oxy)acetyl)piperidin-4-yl)methyl)piperazin-1-yl)phenyl)amino)-9H-purin-9-yl)cyclobutyl)-6-methylpicolinamide], for which, at CDK2, the “Enzyme degradation CDK2 (% remaining) @ 0.1 μM” value amounted to 40%, the “Enzyme degradation CDK2 (% remaining) @ 1 μM” value was determined as 20% and the “Enzyme degradation CDK2 (% remaining) @ 10 μM” value came out at 10%. Besides, on CDK9, the “Enzyme degradation CDK9 (% remaining) @ 0.1 μM” value is 0/0/0%, the “Enzyme degradation CDK9 (% remaining) @ 1 μM” value is given as 0/0/0% and the “Enzyme degradation CDK9 (% remaining) @ 10 μM” value is given as 0/0/0%.
With `Cc1cccc(C(=O)NC2CC(n3cnc4c(NC5CCN(C(=O)CC6CCN(C(=O)CNc7cccc8c7C(=O)N([C@H]7CCC(=O)NC7=O)C8=O)CC6)CC5)ncnc43)C2)n1` (stereo partly drawn) [Compound 52, N-((1s,3s)-3-(6-((1-(2-(1-((2-(2,6-dioxopiperidin-3-yl)-1,3-dioxoisoindolin-4-yl)glycyl)piperidin-4-yl)acetyl)piperidin-4-yl)amino)-9H-purin-9-yl)cyclobutyl)-6-methylpicolinamide], on CDK2, the “Enzyme degradation CDK2 (% remaining) @ 0.1 μM” value came out at 40%, the “Enzyme degradation CDK2 (% remaining) @ 1 μM” value is recorded as 40% and the “Enzyme degradation CDK2 (% remaining) @ 10 μM” value is reported as 50%. For the same molecule, on CDK9, the “Enzyme degradation CDK9 (% remaining) @ 0.1 μM” value stood at 70%, the “Enzyme degradation CDK9 (% remaining) @ 1 μM” value is given as 30% and the “Enzyme degradation CDK9 (% remaining) @ 10 μM” value is listed as 10%.
Regarding `Cc1cccc(C(=O)N[C@H]2C[C@@H](n3cnc4c(Nc5ccc(N6CCN(CC7CCN(c8cc9c(cc8F)C(=O)N([C@H]8CCC(=O)NC8=O)C9=O)CC7)CC6)cc5)ncnc43)C2)n1` [Compound 377, N-((1s,3s)-3-(6-((4-(4-((1-(2-(2,6-dioxopiperidin-3-yl)-6-fluoro-1,3-dioxoisoindolin-5-yl)piperidin-4-yl)methyl)piperazin-1-yl)phenyl)amino)-9H-purin-9-yl)cyclobutyl)-6-methylpicolinamide], on CDK2, the “Enzyme degradation CDK2 (% remaining) @ 0.1 μM” value was 20%, the “Enzyme degradation CDK2 (% remaining) @ 1 μM” value came to 10% and the “Enzyme degradation CDK2 (% remaining) @ 10 μM” value was determined as 10%. On CDK9, the “Enzyme degradation CDK9 (% remaining) @ 0.1 μM” value is given as 0/0/0%, the “Enzyme degradation CDK9 (% remaining) @ 1 μM” value is reported as 0/0/0% and the “Enzyme degradation CDK9 (% remaining) @ 10 μM” value is 0/0/0%.
